From patent publication US11814643B2, “Enhanced sleeping beauty transposons, kits and methods of transposition” (Max-Delbrück-Centrum für Molekulare Medizin in der …, priority 2016, dated 2023)

What was measured:
[1] = tested on: HeLa cells; assay: Transposition assay of neo-marked mutated transposon constructs; type: cell-based
From the text: FIG. 4 Enhanced binding affinity at the inner DR improves Sleeping Beauty transposition. On the left, schematics of various neo-marked, mutated transposon constructs are depicted. On the right, the respective transpositional activities are shown in comparison to wild type transposon (construct 1), set as 100%. A. Composite DRs were created by changing either the PAI (black box) or the RED (grey box) recognition motifs into a high-affinity binding site (CAST-5) selected by the CASTing experiment (marked by stars at the PAI and stripped at the RED recognition motifs). B. The CAST-5 sequence (SEQ ID NO: 24 or 25) was used to replace only the PAI recognition motif, while the rest of the DR was wild type.
Altering the affinity of the binding sites might challenge the ordered assembly process occurring during transposition of a SB transposon. Thus, a series of transposon versions were constructed where 12DR and/or 14DR motifs were replaced by CASTing selected, high affinity binding sites (FIG. 4A), and the various constructs were subjected to transposition assays. […] Alternatively, the negative effect of CAST-5 on transposition could, at least partially, be accounted to its preferential selection for PAI binding, while compromising its RED function. Indeed, the CAST sequences are predicted to be sub-optimal for RED interaction, including the ability to distinguish between inner vs outer positions (FIG. 2). To distinguish between the two scenarios, we generated CAST-5/wt hybrids, where CAST-5 was replacing PAI only, otherwise kept the DRs wild type (wt). Again, we tested the impact of the hybrid motifs on transposition in various combinations. […]
HeLa cells were grown in DMEM (GIBCO BRL, Germany) supplemented with 10% Fecal Calf Serum Gold (FCS Gold) (PAA, Germany) and 1% antimycotic antibiotic (Invitrogen, Germany). […] After 3 weeks of selection, colonies were stained and counted as described in Ivics et al., Cell 1997. […]

[2] = tested on: SB transposition; assay: Transposition assay with inhibition of cathepsin or HSP90; type: cell-based; conditions: cathepsin inhibition; E64D 20 μM vs control
Experimental: In order to monitor transcriptional changes activated by the transposase, a genome-wide transcriptional study was performed (HeLa, Affymetrix). […] While HSPA2, a variant of the heat shock protein HSP70, is a member of the stress response, cathepsins are lysosomal proteases and have a vital role in mammalian cellular turnover. […] In addition, by mitigating the cellular stress response induction of the apoptotic signalling is moderated and cell viability improved.
FIG. 6 A. Effect of E64D (an inhibitor of cathepsins, cystein proteases and calpain) on SB transposition. Transposition assay, (20 μM, right side; control, left side). RNAi approach against cathepsin(s) is expected to yield a similar improvement. B. Differential expression of host genes in the presence oft the transposase (HeLa, Affymetrix). […] Cathepsins (CTs) degrade polypeptides and are distinguished by substrate specificities (CTSH, CTSF, CTS2).

Molecule	transpositional activity in comparison to wild type transposon (set as 100%) ([1]; 12DRs replaced by CAST-5 motif)	transpositional activity in comparison to wild type transposon (set as 100%) ([1]; 14DRs replaced by CAST-5 motif)	transpositional activity in comparison to wild type transposon (set as 100%) ([1]; all the four DRs changed to CAST-5)	effect on SB transposition [2]
CAST-5: high-affinity SB transposase binding site selected by CASTing; 12DR SEQ ID NO: 24, 14DR SEQ ID NO: 25 (chain 1 GTGACGACCCCAAGTGTACATACACGCGCC; chain 2 GTGACGACCCCAAGTGTACATACACGCGCC; listed as DNA, chemistry not fully specified)	65%	3%	2.2%	
CCOC(=O)[C@H]1O[C@@H]1C(=O)N[C@@H](CC(C)C)C(=O)NCCC(C)C [E64D]				improvement
